According to patent US20080004311A1, “HISTONE DEACETYLASE INHIBITORS FOR TREATING DEGENERATIVE DISEASES OF THE EYE” (ALCON, INC., priority 2002, published 2008):

Test system: cultured adult rat retinal ganglion cells (RGC)
Test: Survival of cultured adult rat retinal ganglion cells (RGC), Thy-1-positive healthy cell count
Type: cell-based
Details: Thy-1-positive healthy cells counted; for RGC survival against trophic factor withdrawal (TFW)-induced toxicity: bFGF, BDNF and CNTF removed from medium, cultured with compound for 3 days; for RGC survival against TNFα-induced toxicity / RGC survival against glutamate-induced toxicity: pre-treated 30 minutes; for RGC survival against TNFα-induced toxicity: then 10 ng/mL TNFα for 3 days; for RGC survival against glutamate-induced toxicity: then 100 μM glutamate for 3 days
Method: Culture of rat retinal ganglion cells (RGC) was performed as described in Pang et al. (Pang et al., 2007, BMC Neuroscience 8:11). Adult Sprague-Dawley rats were briefly euthanized by CO2 asphyxiation. Their eyes were enucleated and placed in the Neurobasal medium. The retina from each eye was detached and isolated. Retinal cells were dissociated by combining up to 20 retinas with 5 mL of papain solution, containing 10 mg papain, 2 mg DL-cysteine, and 2 mg bovine serum albumin in 5 ml of Neurobasal medium, for 25 min at 37° C., then washed 3 times with 5 mL RGC medium (Neurobasal medium with various nutrient supplements)+1% fetal calf serum. Retinal pieces were triturated by passing through a fire-polished disposable pipette several times until cells were dispersed. Cell suspension was placed onto of the poly-D-lysine- and laminin-coated 8-well chambered culture slide. The cells were then cultured in 95% air/5% CO2 at 37° C.
For glutamate-induced toxicity studies, cells were pre-treated with vehicle (cell media plus 0.1% DMSO) or the indicated compounds for 30 minutes, followed by 100 μM glutamate for 3 days. For TNFα-induced toxicity studies, cells were pre-treated with vehicle or the indicated compounds for 30 minutes, followed by 10 ng/mL TNFα for 3 days. For s trophic factor withdrawal (TFW) studies, three trophic factors, basic fibroblast growth factor, brain-derived neurotrophic factor, and ciliary neurotrophic factor, were removed from the culture medium. Cells were cultured in this medium with the indicated compounds for 3 days.
At the end of the incubation period, the cells were fixed and labeled for Thy-1, a RGC marker, by immunocytochemistry. Cell survival was quantified by manually counting Thy-1-positive healthy cells in each well. As shown by the data in FIGS. 1, 2, and 3, APHA-8 (Sigma, St. Louis, Mo.) and Scriptaid™ (Sigma, St. Louis, Mo.) were protective against glutamate-, tumor necrosis factor-alpha (TNFα)-, and trophic factor withdrawal (TFW)-induced toxicity.

Cn1cc(C(=O)Cc2ccccc2)cc1C=CC(=O)NO [APHA-8, 3-(1-methyl-4-phenlyacetyl-1H-2-pyrrolyl)-N-hydroxy-2-propenamide]
protective: RGC survival against trophic factor withdrawal (TFW)-induced toxicity | RGC survival against TNFα-induced toxicity | RGC survival against glutamate-induced toxicity

O=C(CCCCCN1C(=O)c2cccc3cccc(c23)C1=O)NO [Scriptaid™, 6-(1,3-Dioxo-1H, 3H-benzo[de]isoquinolin-2-yl)-hexanoic acid hydroxyamide]
protective: RGC survival against trophic factor withdrawal (TFW)-induced toxicity | RGC survival against TNFα-induced toxicity | RGC survival against glutamate-induced toxicity
